The record followed here is US11390613B2, “Azole analogues and methods of use thereof” (UNIVERSITY OF CONNECTICUT, priority 2017, dated 2022).

Converted amounts (≈) assume the structure as drawn. Like-named read-outs stand apart in the source and are kept apart here.

The subject of data set [1] is Gli1 mRNA levels in the murine BCC cell line ASZ-001 (Hh pathway). Put plainly: Hh pathway inhibition: endogenous Gli1 mRNA (qRT-PCR) in ASZ-001 cells. Format: cell-based. Here is the method:
Initial Hh inhibition studies.
(§1) General Information for Cell Culture Studies Protocols for general cell culture, qPCR, and Hh inhibition ASZ cells are as previously described.
(§2) General Information for Cell Culture Studies. Protocols for general cell culture, qPCR, and Hh inhibition ASZ cells are as previously described.
Gene Expression Assay Protocol (ASZ-001): Cells are seeded (10,000 cells per well; 100 μL total volume per well) in a 96-well tissue culture plate. After 24 h of incubation (37° C., 5% CO2), growth media was removed and replaced with low FBS media. Cells were incubated for an additional 24 h. After this time, DMSO (vehicle control) and liposomes (Aqueous Solution) were added to the wells. […]
Rt-PCR Protocol: Following treatment and incubation periods, both RNA extraction and cDNA synthesis were performed using a TaqMan Cells-to-CT (fast) kit. cDNA synthesis utilized a BioRad MyCycler and was programmed according to the manufacturer's instructions. Quantitative RT-PCR was performed on an ABI 7500 system and made use of the following TaqMan Gene Expression Probes: mouse ActB (Mm00607939_s1) and mouse Gli1 (Mm00494654_m1). Relative gene expression levels were computed via ΔΔCT method using GraphPad Prism. Corresponding IC50 values were calculated as mean±SEM for at least three separate experiments performed in triplicate.
For orientation: In qPCR the cycle at which signal appears reflects the starting amount.

Data set [2] can be described thus: Solubility.
Data set [3] has as its system primary murine Hh-dependent MB cell line (MERP). As to the kind of experiment: Antiproliferation in primary Hh-dependent MB cells (MERP). The format is cell-based. To be noted: Mus musculus, Table 6. Here is the method: Secondary In Vitro Evaluation. Based on their activity in ASZ cells, several compounds were evaluated further in a primary murine Hh-dependent MB cell line (MERP).
as §1, §2

A short description of data set [4]: Metabolic half-life and clearance (HLM). The format is in vitro ADME.
Where [5] appears, read: Mus musculus, ASZ001, Table P2, ASZ cells, Gli1 mRNA, 48 h incubation, read-out: IC50.
Where [6] appears, read: Table 6, ASZ cells, Gli1 mRNA, 48 h incubation, read-out: IC50.

For the compound `CC(=O)c1cccc(C(=O)Nc2ccc(N3CCN(c4ccc(OC[C@@H]5CO[C@@](C)(c6ccc(F)cc6F)C5)cc4)CC3)cc2)c1` [Compound P24, 3-acetyl-N-(4-(4-(4-(((3R,5R)-5-(2,4-difluorophenyl)-5-methyltetrahydrofuran-3-yl)methoxy)phenyl)piperazin-1-yl)phenyl)benzamide], the IC50 in data set [1] (setting [5]) is 0.024 ± 0.009 µM.

In the case of `C[C@]1(c2ccc(Cl)cc2Cl)OC[C@@H](COc2ccc(N3CCN(c4ccc(NC(=O)c5ccncc5)cc4)CC3)cc2)O1` [Compound 19, N-(4-(4-(4-(((2S,4R)-2-(2,4-dichlorophenyl)-2-methyl-1,3-dioxolan-4-yl)methoxy)phenyl)piperazin-1-yl)phenyl)isonicotinamide], in data set [1] (setting [6]), the IC50 is above 10 µM.

Take `C[C@]1(c2ccc(F)cc2F)C[C@H](COc2ccc(N3CCN(c4ccc(-n5cnn(CCCO)c5=O)cc4)CC3)cc2)CO1` [Compound P15, 4-(4-(4-(4-(((3R,5R)-5-(2,4-difluorophenyl)-5-methyltetrahydrofuran-3-yl)methoxy)phenyl)piperazin-1-yl)phenyl)-2-(3-hydroxypropyl)-2,4-dihydro-3H-1,2,4-triazol-3-one]: the half-maximal inhibitory concentration (IC50) in data set [1] (setting [5]) was found to be 0.02 ± 0.01 µM.

For `C[C@@]1(c2ccc(Cl)cc2Cl)OC[C@@H](COc2ccc(N3CCN(c4ccc(NC(=O)c5ccccc5O)cc4)CC3)cc2)O1` [Compound 26, N-(4-(4-(4-(((2R,4R)-2-(2,4-dichlorophenyl)-2-methyl-1,3-dioxolan-4-yl)methoxy)phenyl)piperazin-1-yl)phenyl)-2-hydroxybenzamide], the IC50 in data set [1] (setting [6]) was above 10 µM.

For the compound `CC1(c2ccc(Cl)cc2Cl)OCC(COc2ccc(N3CCN(c4ccc(-n5cnn(CCC(=O)O)c5=O)cc4)CC3)cc2)O1` (centres unmarked) [Compound I17, 3-(4-(4-(4-(4-((2-(2,4-dichlorophenyl)-2-methyl-1,3-dioxolan-4-yl)methoxy)phenyl)piperazin-1-yl)phenyl)-5-oxo-4,5-dihydro-1H-1,2,4-triazol-1-yl)propanoic acid], in data set [1] (setting [5]), the IC50 was 0.012 ± 0.005 µM.

As for `C[C@]1(c2ccc(Cl)cc2Cl)OC[C@@H](COc2ccc(N3CCN(c4ccc(NC(=O)c5ccoc5)cc4)CC3)cc2)O1` [Compound 35, N-(4-(4-(4-(((2S,4R)-2-(2,4-dichlorophenyl)-2-methyl-1,3-dioxolan-4-yl)methoxy)phenyl)piperazin-1-yl)phenyl)furan-3-carboxamide], in data set [1] (Table 7, ASZ cells, Gli1 mRNA, 48 h incubation), the “IC50 (μM)” value is “inactive”. Moreover, the IC50 in data set [1] (Table 7, ASZ cells, Gli1 mRNA, 48 h incubation, read-out: IC50) was above 10 µM.

As for `C[C@@]1(c2ccc(Cl)cc2Cl)OC[C@@H](COc2ccc(N3CCN(c4ccc(NC(=O)c5ccccn5)cc4)CC3)cc2)O1` [Compound 12, N-(4-(4-(4-(((2R,4R)-2-(2,4-dichlorophenyl)-2-methyl-1,3-dioxolan-4-yl)methoxy)phenyl)piperazin-1-yl)phenyl)picolinamide], the IC50 in data set [1] (setting [6]) was above 10 µM.

Consider `C[C@@]1(c2ccc(Cl)cc2Cl)OC[C@@H](COc2ccc(N3CCN(c4ccc(NC(=O)c5ccc6ccccc6c5)cc4)CC3)cc2)O1` [Compound 11, N-(4-(4-(4-(((2R,4R)-2-(2,4-dichlorophenyl)-2-methyl-1,3-dioxolan-4-yl)methoxy)phenyl)piperazin-1-yl)phenyl)-2-naphthamide], for which the IC50 in data set [1] (setting [6]) was above 10 µM.

Turning to `C[C@@]1(c2ccc(Cl)cc2Cl)OC[C@@H](COc2ccc(N3CCN(c4ccc(-n5cn[nH]c5=O)cc4)CC3)cc2)O1` [Compound 41], the IC50 in data set [1] (Table 8, ASZ cells, Gli1 mRNA, 48 h incubation, read-out: IC50) was 0.14 µM.

In data set [1] (Mus musculus, ASZ001, 48 h), `C[C@]1(c2ccc(Cl)cc2Cl)OC[C@@H](COc2ccc(N3CCN(c4ccc(NC(=O)c5ccccc5O)cc4)CC3)cc2)O1` [Compound 29, N-(4-(4-(4-(((2S,4R)-2-(2,4-dichlorophenyl)-2-methyl-1,3-dioxolan-4-yl)methoxy)phenyl)piperazin-1-yl)phenyl)-2-hydroxybenzamide] came in with an IC50 of 2.2 ± 0.3 µM.

In data set [1] (Mus musculus, ASZ001, 48 h), `C[C@]1(c2ccc(F)cc2F)C[C@H](COc2ccc(N3CCN(c4ccc(NC(=O)Oc5ccccc5)cc4)CC3)cc2)CO1` [Compound P21, phenyl (4-(4-(4-(((3R,5R)-5-(2,4-difluorophenyl)-5-methyltetrahydrofuran-3-yl)methoxy)phenyl)piperazin-1-yl)phenyl)carbamate] had an IC50 above 10 µM.

On to `C[C@]1(c2ccc(F)cc2F)C[C@H](COc2ccc(N3CCN(c4ccc(-n5cnn(CCC(=O)O)c5=O)cc4)CC3)cc2)CO1` [Compound P13, 3-(4-(4-(4-(4-(((3R,5R)-5-(2,4-difluorophenyl)-5-methyltetrahydrofuran-3-yl)methoxy)phenyl)piperazin-1-yl)phenyl)-5-oxo-4,5-dihydro-1H-1,2,4-triazol-1-yl)propanoic acid], for which, in data set [1] (setting [5]), the IC50 amounted to 0.032 ± 0.01 µM.

In turn, `C[C@]1(c2ccc(Cl)cc2Cl)OC[C@@H](COc2ccc(N3CCN(c4ccc(-n5cn[nH]c5=O)cc4)CC3)cc2)O1` [Compound 42, 4-(4-(4-(4-(((2S,4R)-2-(2,4-dichlorophenyl)-2-methyl-1,3-dioxolan-4-yl)methoxy)phenyl)piperazin-1-yl)phenyl)-1H-1,2,4-triazol-5(4H)-one] yielded an IC50 in data set [1] (Mus musculus, ASZ001, 48 h) of 0.21 µM.

Turning to `C[C@]1(c2ccc(Cl)cc2Cl)OC[C@@H](COc2ccc(N3CCN(c4ccc(NC(=O)c5ccccc5)cc4)CC3)cc2)O1` [Compound 15, N-(4-(4-(4-(((2S,4R)-2-(2,4-dichlorophenyl)-2-methyl-1,3-dioxolan-4-yl)methoxy)phenyl)piperazin-1-yl)phenyl)benzamide], the IC50 in data set [1] (setting [6]) is above 10 µM.

As to `C[C@@]1(c2ccc(Cl)cc2Cl)OC[C@@H](COc2ccc(N3CCN(c4ccc(NC(=O)c5cccc(O)c5)cc4)CC3)cc2)O1` [Compound 27, N-(4-(4-(4-(((2R,4R)-2-(2,4-dichlorophenyl)-2-methyl-1,3-dioxolan-4-yl)methoxy)phenyl)piperazin-1-yl)phenyl)-3-hydroxybenzamide], the “Solubility” value in data set [2] came to 1.4 nM (≈ 0.888 ng/mL). This compound also gave an IC50 in data set [3] of 2.8 ± 1.5 µM. In data set [4], the “T1/2 (HLM, min)” value was above 231 min.

`C[C@@]1(c2ccc(Cl)cc2Cl)OC[C@@H](COc2ccc(N3CCN(c4ccc([N+](=O)[O-])cc4)CC3)cc2)O1` [Compound 6, 1-(4-(((2R,4R)-2-(2,4-dichlorophenyl)-2-methyl-1,3-dioxolan-4-yl)methoxy)phenyl)-4-(4-nitrophenyl)piperazine]: inhibition in data set [1] (Mus musculus, ASZ001, 48 h) was half-maximal at 0.31 ± 0.04 µM (IC50).

Regarding `C[C@]1(c2ccc(F)cc2F)C[C@H](COc2ccc(N3CCN(c4ccc(N)cc4)CC3)cc2)CO1` [Compound P20, 4-(4-(4-(((3R,5R)-5-(2,4-difluorophenyl)-5-methyltetrahydrofuran-3-yl)methoxy)phenyl)piperazin-1-yl)aniline], the IC50 in data set [1] (setting [5]) worked out at 0.33 ± 0.12 µM.

Turning to `COc1cccc(C(=O)Nc2ccc(N3CCN(c4ccc(OC[C@@H]5CO[C@](C)(c6ccc(Cl)cc6Cl)O5)cc4)CC3)cc2)c1` [Compound 33, N-(4-(4-(4-(((2S,4R)-2-(2,4-dichlorophenyl)-2-methyl-1,3-dioxolan-4-yl)methoxy)phenyl)piperazin-1-yl)phenyl)-3-methoxybenzamide], the IC50 in data set [1] (Mus musculus, ASZ001, 48 h) was determined as 5.7 µM.

On to `C[C@]1(c2ccc(F)cc2F)C[C@H](COc2ccc(N3CCN(c4ccc(-n5cn[nH]c5=O)cc4)CC3)cc2)CO1` [Compound P23, 4-(4-(4-(4-(((3R,5R)-5-(2,4-difluorophenyl)-5-methyltetrahydrofuran-3-yl)methoxy)phenyl)piperazin-1-yl)phenyl)-2,4-dihydro-3H-1,2,4-triazol-3-one], for which the IC50 in data set [1] (setting [5]) stood at 0.19 ± 0.1 µM.

For `C[C@]1(c2ccc(F)cc2F)C[C@H](COc2ccc(N3CCN(c4ccc(NC(=O)c5cccnc5)cc4)CC3)cc2)CO1` [Compound P26, N-(4-(4-(4-(((3R,5R)-5-(2,4-difluorophenyl)-5-methyltetrahydrofuran-3-yl)methoxy)phenyl)piperazin-1-yl)phenyl)nicotinamide], the 50% inhibitory concentration (IC50) in data set [1] (Table P2, ASZ cells, Gli1 mRNA, 48 h incubation, read-out: IC50) came to 0.038 µM.

On to `C[C@]1(c2ccc(F)cc2F)C[C@H](COc2ccc(N3CCN(c4ccc([N+](=O)[O-])cc4)CC3)cc2)CO1` [Compound P19, 1-(4-(((3R,5R)-5-(2,4-difluorophenyl)-5-methyltetrahydrofuran-3-yl)methoxy)phenyl)-4-(4-nitrophenyl)piperazine], for which the IC50 in data set [1] (setting [5]) amounted to 0.74 ± 0.15 µM.

With `C[C@]1(c2ccc(Cl)cc2Cl)OC[C@@H](COc2ccc(N3CCN(c4ccc(NC(=O)c5ccccn5)cc4)CC3)cc2)O1` [Compound 17, N-(4-(4-(4-(((2S,4R)-2-(2,4-dichlorophenyl)-2-methyl-1,3-dioxolan-4-yl)methoxy)phenyl)piperazin-1-yl)phenyl)picolinamide], the IC50 in data set [1] (Mus musculus, ASZ001, 48 h) came out at 3.9 ± 0.3 µM.

Turning to `C[C@]1(c2ccc(Cl)cc2Cl)OC[C@@H](COc2ccc(N3CCN(c4ccc(NC(=O)c5ccc6ccccc6c5)cc4)CC3)cc2)O1` [Compound 16, N-(4-(4-(4-(((2S,4R)-2-(2,4-dichlorophenyl)-2-methyl-1,3-dioxolan-4-yl)methoxy)phenyl)piperazin-1-yl)phenyl)-2-naphthamide], the half-maximal inhibitory concentration (IC50) in data set [1] (setting [6]) was above 10 µM.

A word on the IC50: it is the concentration that inhibits the measured activity by half. One may read the Solubility as the concentration that dissolves in the medium under given conditions. A high value points to a readily soluble substance.
